Data: patent publication US20250302913A1, “LACRIPEP PROMOTES NEUROREGENERATION AND MAINTAINS EPITHELIAL PROGENITOR CELL IDENTITY” (The Regents of The University of California, priority 2022, published 2025)

Legend:
Aire KO corneas = test: Epithelial barrier function by lissamine green uptake; type: in vivo, mouse
From the text: As dry eye results in disruption of ocular surface integrity resulting in cornea barrier dysfunction and, consequently, fluid loss and pathogen invasion (11), we next determined whether lacripep maintains corneal epithelial architecture by analyzing lissamine green uptake at day 7 and 15. […] Restoration of barrier function was further confirmed by analyzing the superficial epithelial layers for the tight junction protein ZO1 which is essential to the structural integrity of the corneal epithelium (12).
Aire KO female mice aged 5 weeks were used for the study. All mice were topically treated with 5 μL per eye of 4 μM lacripep. Dosing was three times daily for 14 consecutive days. Lissamine green staining assessment and tear secretion assays were performed on each eye before treatment at baseline, 7 days and 14 days post treatment
After mice were anesthetized with isoflurane, 5 μL of lissamine green dye (1%) was applied to the lower conjunctival cul-de-sac. […] Lissamine green staining was scored by dividing the cornea into four quadrants, the extent of staining in each quadrant was classified as Grade 0, no staining; Grade 1, sporadic (<25%); Grade 2, diffuse punctate (25-75%), or Grade 3, coalesced punctate staining (75% or more). The total score was calculated separately for each eye and equaled the sum of all four quadrants ranging from 0 (no staining) to 12 (most severe staining). […]

[1] = system: intraepithelial sensory nerve terminals; test: Intraepithelial sensory nerve terminals by 3D imaging (IMARIS); type: in vivo, mouse; conditions: day 7
From the text: We next determined the extent of functional reinnervation of the cornea at day 7 by assessing the distribution of sensory nerve endings (nerve terminals) within the epithelial layers in lacripep-treated Aire KO corneas compared to WT and PBS KO controls (FIG. 3D). Sensory nerve terminals within the corneal epithelium respond to changes in the thickness and stability of the tear film to promote basal tear secretion, while also triggering epithelial responses to restore homeostasis through the release of neurotransmitters. […]
Quantification of corneal epithelial nerve density and synapses. Tissue sections: TUBB3+ nerve density within 300 μm sections of central cornea epithelial ROI was quantified by applying Tsai's thresholding method (Moments), with integrated densities within the ROI of the thresholded image being recorded. Corneal whole mounts: The density of nerves expressing GAP43, TUBB3, or GAP43 and TUBB3 (% Area of 354 μm×396 μm) was quantified from central cornea images of whole mount cornea and plotted in a stacked bar graph to visualize the proportion of each of the three nerve types. Similarly, numbers of synapses marked by expression of GAP43, TUBB3, or GAP43 and TUBB3 were counted per respective region of central cornea (100 μm2) and plotted in a stacked bar graph. […]
3D reconstruction of nerve fibers. […] Touching nuclei were split by the calculated seed points inside each area.

syndecan-1 (SDC1) = biological target: T1, syndecan-1 (SDC1) (Homo sapiens, UniProt P18827); conditions: cited from earlier work
T1 sequence (P18827 23-310): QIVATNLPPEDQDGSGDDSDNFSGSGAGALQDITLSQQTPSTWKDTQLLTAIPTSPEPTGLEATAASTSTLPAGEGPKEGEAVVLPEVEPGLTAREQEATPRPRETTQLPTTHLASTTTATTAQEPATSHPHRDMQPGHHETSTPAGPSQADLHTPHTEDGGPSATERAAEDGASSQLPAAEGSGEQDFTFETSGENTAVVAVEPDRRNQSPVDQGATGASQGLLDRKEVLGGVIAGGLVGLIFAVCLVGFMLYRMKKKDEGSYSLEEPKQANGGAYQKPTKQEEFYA

## Ac-KQFIENGSEFAQKLLKKFSLLKPWA-NH2 [lacripep, amino terminus acetylated, carboxyl terminus aminated]
Aire KO corneas; day 7, compared to WT controls
  lissamine green uptake: increased lissamine green uptake compared to WT controls
Aire KO corneas; day 15, uptake levels resembling WT corneas
  epithelial barrier function (lissamine green uptake): significantly improved
[1]; PBS 5, WT 78
  intraepithelial sensory nerve terminals: 50 per 0.1 mm^2
[1]; compared to WT controls
  proportion of sensory nerve terminals expressing GAP43 as opposed to only TUBB3: increase
syndecan-1 (SDC1)
  binding and activation of syndecan-1: bind and activate
